Experimental findings from patent publication US10195174B2, “Carbonic anhydrase IX-related markers and use thereof” (SIGNALCHEM LIFESCIENCES CORPORATION, priority 2011, dated 2019) are described below.

In one assay the test system is parental 4T1 cell line. Kind of assay: Tumorsphere (TS) formation from doubling dilutions, minimum number of cells required to form a TS. The format is cell-based, mouse. Conditions: parental 4T1, hypoxia, 7 days, 200 μM CAI17 (FIG. 6) vs vehicle. As to the method:
FIG. 6 is a graph of the number of cells required to initiate TS growth. Parental 4T1 were seeded at doubling dilutions and cultured under TS-forming conditions with 200 μM CAI17 or vehicle added, in normoxia or hypoxia. Mean±SEM of three independent experiments is shown. Statistical significance was confirmed using T-test, *P<0.001, **P<0.0060.
For culture in hypoxia, cells were maintained in 1% O2 and 5% CO2 balanced with N2 at 37 degrees C. in a humidified incubator in a sealed anaerobic workstation. Stable depletion of murine CAIX in 4T1 cells was carried out as described previously (Lou, McDonald et al. 2011).
Cultured 4T1 cells were grown as monolayers with twice weekly sub-cultivation in DMEM (Gibco) containing 5% fetal bovine serum (FBS) (Sigma). Subsequently, parental, shNS and shCAIX 4T1 were cultured as Tumor Spheres (TSs) in Mammocult™ media (StemCell Technologies, Vancouver, B.C., Canada) as per the manufacturer's instructions (Lock, McDonald et al. 2012). Alternatively, for spinner culture TS growth, monolayer cells were trypsinized and single-cell suspensions were incubated at 2×10^5 to 4×10^5 cells/ml in sealed glass spinner culture flasks (Bellco, Vineland, N.J.) under constant rotation, at 150 RPM, 37° C. in DMEM (5% FBS) pre-equilibrated to 5% CO2 as previously described (Oloumi, MacPhail et al. 2000). Cultures were grown for up to 3 weeks. […]

Assay [1] relates to MDA-MB-231 LM2-4 breast cancer cells. Nature of the assay: CAIX inhibitor with and without paclitaxel: tumor volume, lung metastases (IVIS) and EpCAM+ population (FACS). The note with it: tumors excised at humane end point, vs vehicle controls, three tumors per group. The format is in vivo, NOD-SCID mice. How it is done:
MDA-MB-231 LM2-4 Luc+ cells were implanted into NOD/SCID mice, tumors were established for 10 days and treatment was then initiated. Paclitaxel was administered by i.v. injection and MST-104 was provided by i.p. injection according to the dosing schedule outlined in the graph (arrows). n=7-8/group. *P<0.02, **P<0.002.
Heat maps indicating metastases are overlaid on grayscale images of the lungs.
The mean total photon flux±SEM for each group is shown.
FIGS. 29A-29E show representative FACS data. NOD-SCID mice mammary fat pad were inoculated with MDA-MB-231 LM2-4 breast cancer cells. Mice were IV dosed with Paclitaxel, or MST-104, or both drugs in combination, or vehicle. At the humane end point, tumours were excised and the viable EpCAM positive population was assessed by FACS.
At the humane end point, tumors were excised and the viable EpCAM positive population was assessed by FACS. […]
All animal procedures and studies were carried out in accordance with protocols approved by the Institution Animal Care Committee at the BC Cancer Research Centre and the University of British Columbia (Vancouver, BC, Canada). […] Primary tumor growth rates were calculated from caliper measurements using the modified ellipsoid formula (L×W2)/2. Tumor formation and metastasis progression was monitored and quantified using bioluminescent imaging as previously described (Lou, McDonald et al. 2011). […]

The subject of assay [2] is mTORC1 signaling pathway in MDA-MB-231 LM2-4Luc+ tumor cells. Nature of the assay: Western blot of mTOR pathway components in tumor cells isolated from treated tumor-bearing mice. Also on record: species or system NOD/SCID mice. Conditions: in vivo treated tumors. The text has this:
Levels of expression of Actin and GAPDH are shown as loading controls.
To assess the effect of inhibition of CAIX activity on the mTOR pathway by breast cancer cells in vivo, orthotopic human primary breast tumors using MDA-MB-231 LM2-4Luc^+ cells were established in NOD/SCID mice and treated tumor-bearing animals with vehicle or the CAIX-specific inhibitor MST-104. At the experimental end point, primary tumors were removed, dissociated and viable tumor cells lysed and subjected to Western blotting (Lock, McDonald et al. 2012). […] Raptor expression was not regulated following CAIX inhibition in vivo (Raptor/Actin densitometry: Vehicle 0.64 mean±0.05 SEM; U-104 mean 0.69±0.14 SEM).
(In general: In western blotting, separated proteins are transferred to a membrane and probed.)

In assay [3] the test system is EpCAM+ population of MDA-MB-231 LM2-4Luc+ tumors. Nature of the assay: EpCAM+ cancer stem cell population of excised primary tumors by FACS. The format is in vivo, NOD/SCID mice. Conditions: 27 days, 38 mg/kg MST-104 or 30 mg/kg MST-205, vs vehicle (mean 10% EpCAM+). As to the method: FIGS. 22A and 22B are representative FACS plots (FIG. 22A) and a bar graph (FIG. 22B), showing the mean changes in EpCAM+ cells±SEM, from 3 mice. MDA-MB-231 LM2-4luc+ were implanted orthotopically into NOD/SCID mice. When tumors reached an average of […], animals received either vehicle or 38 mg/kg MST-104. After 27 days, primary tumors were removed, dissociated and EpCAM+ cell population assessed by FACS analysis. Statistical significance was confirmed using T-test. ***P<0.0331, **P<0.0224.
FIGS. 23A and 23B are representative FACS plots (FIG. 23A) and a bar graph (FIG. 23B) showing MDA-MB-231 LM2-4luc+ cells that were implanted orthotopically into NOD/SCID mice. […] After 27 days, primary tumors were removed, dissociated and EpCAM+ cell population assessed by FACS analysis. […]
All animal procedures and studies were carried out in accordance with protocols approved by the Institution Animal Care Committee at the BC Cancer Research Centre and the University of British Columbia (Vancouver, BC, Canada). […] Primary tumor growth rates were calculated from caliper measurements using the modified ellipsoid formula (L×W2)/2. Tumor formation and metastasis progression was monitored and quantified using bioluminescent imaging as previously described (Lou, McDonald et al. 2011).
The effect of CAIX inhibition on the primary tumor cancer stem cell population in vivo was quantified. […]

In assay [4] the test system is parental 4T1 CD44+CD24−/low cells. Kind of assay: E-cadherin immunostaining of FACS-sorted 4T1 populations cultured in hypoxia with or without CAIX inhibitor. The format is cell-based, mouse. Conditions: hypoxia 5 days, 50 μM MST-104, vs vehicle. As to the method:
FIG. 20 are images of parental 4T1 cells cultured as TSs in normoxia, disaggregated, stained for CD44, CD24 and collected by FACS. Viable CD44+CD24−/low or CD44−CD24+ cells were collected and cultured on glass coverslips in hypoxia for 5 days, with and without 50 μM MST-104, fixed and assessed by immunostaining for expression of E-cadherin.
4T1 TSs were incubated with trypsin, washed once in HF buffer (HBSS containing 2% Fetal Bovine Serum), then stained with anti-CD24-APC and anti-CD44-PECy7 using 0.3 μl of antibody per […] in 100 ul HF, and incubated on ice for 10 min. Following incubation, cells were washed once with HF buffer and resuspended in 300 ul HF buffer containing 4′,6-diamidino-2-phenylindole (DAPI; final concentration, 1 μg/ml). Cells were separated on an Aria™ cell sorter (BD Biosciences, San Jose, Calif., USA). Live cells were gated on the basis of forward and side scatter, and single cells were gated on the basis of forward scatter and pulse width. Gates were determined by analysis of unstained cells, isotype specific controls, and single stains. The CD44+CD24−/low or […] cells were not assessed for purity due to the low numbers of cells obtained. The cell counter of the flow cytometers was used to determine cell numbers. Cells were collected into DMEM media or HF buffer. […]

In assay [5] the test system is MDA-MB-231 LM2-4Luc+ primary breast tumor xenografts. Nature of the assay: Primary tumor growth of orthotopic breast tumor xenografts. The format is in vivo, NOD/SCID mice. The note with it: 38 mg/kg MST-104 or 30 mg/kg MST-205, vs vehicle controls, n=8/group. As to the method:
FIG. 21 is a graphical representation of in vivo tumor growth. MDA-MB-231 LM2-4luc+ were implanted orthotopically into NOD/SCID mice. When tumors reached an average of […], animals received either vehicle, 38 mg/kg MST-104 or 30 mg/kg MST-205. Subsequent tumor growth was monitored. n=8/group.*P<0.02, **P<0.01.
All animal procedures and studies were carried out in accordance with protocols approved by the Institution Animal Care Committee at the BC Cancer Research Centre and the University of British Columbia (Vancouver, BC, Canada). For primary breast tumor xenografts, 2×10^6 MDA-MB-231 LM2-4Luc+ variant cells were suspended in a 50% Matrigel™/PBS solution and implanted orthotopically in 6-8 week-old female NOD.CB17-prkdcscid/J mice as previously described (Lou, McDonald et al. 2011). Therapy was initiated when tumors reached 200 mm^3. Primary tumor growth rates were calculated from caliper measurements using the modified ellipsoid formula (L×W2)/2. Tumor formation and metastasis progression was monitored and quantified using bioluminescent imaging as previously described (Lou, McDonald et al. 2011).
To evaluate the effect of CAIX inhibition on tumor growth and cancer stem cell expansion in vivo, primary breast tumor xenografts were established using a variant of the MDA-MB-231 cell line, MDA-MB-231 LM2-4Luc+. […] Tumor growth was assessed by caliper measurement and IVIS imaging.

SMILES strings stand for the structures.

In the case of `NS(=O)(=O)c1ccc(CCNC(=S)Nc2ccc(-c3c4ccc(=O)cc-4oc4cc(O)ccc34)c(C(=O)O)c2)cc1` [CAI017], the “number of seeding cells required to form a TS” value with parental 4T1 cell line was “significantly increased”.
Take `NS(=O)(=O)c1ccc(NC(=O)Nc2ccc(F)cc2)cc1` [MST-104]: the “viable EpCAM positive population (mean percentage of EpCAM+ CSC)” value in assay [1] is on record as “significant decrease”. In assay [2] (Western blot, vs vehicle), the Raptor expression result was “not regulated”; the “expression of the mTORC1 component mTOR” value was “abolished”; the mTORC1 signaling pathway result is “inhibition of the mTORC1 signaling pathway”; the “phosphorylation and expression of 4EBP1” value was “depleted phosphorylation and expression”. Also, the “phosphorylation of Ser939 TSC2” value in assay [2] (Western blot, vs vehicle) is “reduced phosphorylation”. The Raptor/Actin densitometry in assay [2] (mean ± SEM (vehicle 0.64 ± 0.05)) stood at 0.69±0.14. The “EpCAM+ population of primary tumors” value in assay [3] is reported as “statistically significant reduced EpCAM+ population”. Further, the E-cadherin staining result in assay [4] is “robust E-cadherin staining”. In addition, the “primary tumor growth (tumor volume)” value in assay [5] is recorded as “significant inhibition of primary tumor growth”.
Consider `CC(=O)O[C@H]1C(=O)[C@@]2(C)[C@H]([C@H](OC(=O)c3ccccc3)[C@]3(O)C[C@H](OC(=O)[C@H](O)[C@@H](NC(=O)c4ccccc4)c4ccccc4)C(C)=C1C3(C)C)[C@]1(OC(C)=O)CO[C@@H]1C[C@@H]2O` [paclitaxel, reference compound], for which the “viable EpCAM positive population (mean percentage of EpCAM+ CSC)” value in assay [1] is “increase in the mean percentage of EpCAM+CSC”.
